pIC50: −log10 of the molar value. In brackets after ≈: the same amount, converted by molar mass.
How the values were obtained:
M. tuberculosis = test: Mycobacteria susceptibility testing, Microplate Alamar Blue Assay, Mtu MIC; type: cell-based, Mycobacterium tuberculosis (Mtu); details: Mycobacterium tuberculosis
Eco-tolC = test: Bacterial susceptibility testing in liquid media, Eco-tolC MIC; details: Escherichia coli, read-out: Eco-tolC MIC
Text: (§1) Compounds may be tested for antimicrobial activity by susceptibility testing in liquid media. Compounds may be dissolved in dimethylsulfoxide and tested in 10 doubling dilutions in the susceptibility assays. The organisms used in the assay may be grown overnight on suitable agar media and then suspended in a liquid medium appropriate for the growth of the organism. The suspension can be a 0.5 McFarland and a further 1 in 10 dilution can be made into the same liquid medium to prepare the final organism suspension in 100 μL. Plates can be incubated under appropriate conditions at 37° C. for 24 hrs prior to reading.

Spn548 = test: Bacterial susceptibility testing in liquid media, Spn548 MIC; details: Streptococcus pneumoniae, 24 h, read-out: Spn548 Mean MIC
Text: as §1

Msm. GyrB = molecular target: T1, Msm. GyrB (Mycolicibacterium smegmatis, UniProt A0QNE0); test: Msmegmatis GyrB enzyme assay (ATPase, malachite green phosphate detection); type: biochemical; details: read-out: Msm_GyrB IC50
T1 construct: 15 nM Msm; GyrB, 650 μM ATP, and compound in dimethyl sulfoxide
Procedure: Compounds may be tested for inhibition of GyrB ATPase activity using an ammonium molybdate/malachite green-based phosphate detection assay (Lanzetta, P. A., L. J. Alvarez, P. S. Reinach, and O. A. Candia, 1979, 100: 95-97; Innova Biosciences malachite green detection kit). Assays can be performed in multi-well plates in 50 μl reactions containing: 50 mM HEPES buffer pH 7.7, 250 mM potassium glutamate, 200 mM potassium chloride, 2 mM magnesium chloride, 2% glycerol, 1 mM 1,4-Dithio-DL-threitol, 0.005% Brij-35, 15 nM Msm. GyrB, 650 μM ATP, and compound in dimethyl sulfoxide. Reactions can be quenched with 12.5 μl of ammonium molybdate/malachite green detection reagent (Pi color lock gold & accelerator mix; Innova Biosciences), followed by the addition of 5 μl of stabilizer (Innova Biosciences) after 5 min of incubation.

T1 sequence (A0QNE0 whole entry): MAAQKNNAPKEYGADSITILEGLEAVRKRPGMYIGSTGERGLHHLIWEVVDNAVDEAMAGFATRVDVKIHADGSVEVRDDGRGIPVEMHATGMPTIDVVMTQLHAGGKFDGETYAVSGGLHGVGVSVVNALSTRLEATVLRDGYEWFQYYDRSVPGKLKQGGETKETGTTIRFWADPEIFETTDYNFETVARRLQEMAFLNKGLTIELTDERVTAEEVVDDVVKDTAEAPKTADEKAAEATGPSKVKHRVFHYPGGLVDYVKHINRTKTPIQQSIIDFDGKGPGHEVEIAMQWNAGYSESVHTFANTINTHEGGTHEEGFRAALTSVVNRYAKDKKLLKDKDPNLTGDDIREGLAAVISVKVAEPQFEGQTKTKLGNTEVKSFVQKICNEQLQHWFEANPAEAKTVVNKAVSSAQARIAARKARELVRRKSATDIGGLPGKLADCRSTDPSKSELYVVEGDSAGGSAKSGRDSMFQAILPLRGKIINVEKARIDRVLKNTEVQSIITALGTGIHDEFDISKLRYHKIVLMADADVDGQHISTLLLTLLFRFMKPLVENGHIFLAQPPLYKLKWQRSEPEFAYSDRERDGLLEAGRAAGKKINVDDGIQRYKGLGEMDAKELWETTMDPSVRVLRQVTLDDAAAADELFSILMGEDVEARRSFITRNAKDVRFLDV

SMILES	MIC (M. tuberculosis) [µg/mL]	MIC (Eco-tolC) [µg/mL]	MIC (Spn548) [µg/mL]	pIC50 (Msm. GyrB)
CCNC(=O)Nc1nc2cc(-c3ccc(F)nc3)c(OCC3CCOCC3)nc2s1 [Example 59, 1-ethyl-3-[6-(6-fluoropyridin-3-yl)-5-(tetrahydro-2H-pyran-4-ylmethoxy)[1,3]thiazolo[5,4-b]pyridin-2-yl]urea]	0.5 (≈ 1.16 µM)	1 (≈ 2.32 µM)	0.125 (≈ 0.29 µM)	> 8.32
CCNC(=O)Nc1nc2cc(-c3cncnc3)c(OCC(F)(F)F)nc2s1 [Example 39, 1-ethyl-3-[6-pyrimidin-5-yl-5-(2,2,2-trifluoroethoxy)[1,3]thiazolo[5,4-b]pyridin-2-yl]urea]	0.25 (≈ 0.628 µM)	0.354 (≈ 0.888 µM)	0.0625 (≈ 0.157 µM)	> 8.41
CCNC(=O)Nc1nc2cc(-c3ccc(F)nc3)c(OCCOC)nc2s1 [Example 48, 1-ethyl-3-[6-(6-fluoropyridin-3-yl)-5-(2-methoxyethoxy)[1,3]thiazolo[5,4-b]pyridin-2-yl]urea]	0.707 (≈ 1.81 µM)	0.125 (≈ 0.319 µM)	0.0625 (≈ 0.16 µM)	8.35
C=CCNC(=O)Nc1nc2cc(-c3cncc(C(=O)NCCCN4CCCC4=O)c3)cnc2s1 [Example 19, N-[3-(2-oxopyrrolidin-1-yl)propyl]-5-{2-[(prop-2-en-1-ylcarbamoyl)amino][1,3]thiazolo[5,4-b]pyridin-6-yl}pyridine-3-carboxamide]	32 (≈ 66.7 µM)	> 32	> 32	6.53
C=CCNC(=O)Nc1nc2cc(-c3cncc(C(=O)OCC)c3)c(C)nc2s1 [Example 8, 5-[2-(3-Allyl-ureido)-5-methyl-thiazolo [5,4-b]pyridin-6-yl]-nicotinic acid ethyl ester]	> 32	> 39.8	> 39.8	6.82
CCNC(=O)Nc1nc2cc(-c3cncnc3)c(OCC3CCOCC3)nc2s1 [Example 49, 1-ethyl-3-[6-pyrimidin-5-yl-5-(tetrahydro-2H-pyran-4-ylmethoxy)[1,3]thiazolo[5,4-b]pyridin-2-yl]urea]	0.0625 (≈ 0.151 µM)	0.125 (≈ 0.302 µM)	0.0625 (≈ 0.151 µM)	> 8.60
C=CCNC(=O)Nc1nc2cc(-c3cncnc3)c(OCCOC)nc2s1 [Example 30, 1-[5-(2-methoxyethoxy)-6-pyrimidin-5-yl[1,3]thiazolo[5,4-b]pyridin-2-yl]-3-prop-2-en-1-ylurea]	2 (≈ 5.18 µM)	0.609 (≈ 1.58 µM)	0.152 (≈ 0.394 µM)	7.22
CCNC(=O)Nc1nc2cc(-c3cncnc3)c(OCCc3scnc3C)nc2s1 [Example 38, 1-ethyl-3-{5-[2-(4-methyl-1,3-thiazol-5-yl)ethoxy]-6-pyrimidin-5-yl[1,3]thiazolo[5,4-b]pyridin-2-yl}urea]	0.281 (≈ 0.636 µM)	0.125 (≈ 0.283 µM)	0.0625 (≈ 0.142 µM)	> 8.30
C=CCNC(=O)Nc1nc2cc(-c3cnc(OC)nc3)c(OCCN3CCCC3)nc2s1 [Example 20, 1-[6-(2-methoxypyrimidin-5-yl)-5-(2-pyrrolidin-1-ylethoxy)[1,3]thiazolo[5,4-b]pyridin-2-yl]-3-prop-2-en-1-ylurea]	> 32	> 32	> 32	6.59
C=CCNC(=O)Nc1nc2cc(-c3cncc(C(=O)NCC(C)C)c3)cnc2s1 [Example 26, N-(2-methylpropyl)-5-{2-[(prop-2-en-1-ylcarbamoyl)amino][1,3]thiazolo[5,4-b]pyridin-6-yl}pyridine-3-carboxamide]	> 32	> 32	> 32	6.40
CCNC(=O)Nc1nc2cc(-c3cnc(C#N)nc3)c(OCC3CCOC3)nc2s1 (stereo not shown) [Example 66, 1-[6-(2-cyanopyrimidin-5-yl)-5-(tetrahydrofuran-3-ylmethoxy)[1,3]thiazolo[5,4-b]pyridin-2-yl]-3-ethylurea]	< 0.043	0.5 (≈ 1.18 µM)	0.125 (≈ 0.294 µM)	> 8.60
CCNC(=O)Nc1nc2cc(-c3cncnc3)c(OC)nc2s1 [Example 56, 1-ethyl-3-(5-methoxy-6-pyrimidin-5-yl[1,3]thiazolo[5,4-b]pyridin-2-yl)urea]	0.707 (≈ 2.14 µM)	0.5 (≈ 1.51 µM)	0.0625 (≈ 0.189 µM)	7.67
CCNC(=O)Nc1nc2cc(-c3cncnc3)c(N[C@@H](C)C(=O)NC)nc2s1 [Example 67, (2S)-2-[[2-(ethylcarbamoylamino)-6-pyrimidin-5-yl-thiazolo[4,5-e]pyridin-5-yl]amino]-N-methyl-propanamide]	1.41 (≈ 3.53 µM)	> 64	2 (≈ 4.99 µM)	7.80
C=CCNC(=O)Nc1nc2cc(-c3cncc(C(=O)N4CCOCC4)c3)cnc2s1 [Example 25, 1-{6-[5-(morpholin-4-ylcarbonyl)pyridin-3-yl][1,3]thiazolo[5,4-b]pyridin-2-yl}-3-prop-2-en-1-ylurea]	> 32	> 32	> 32	5.84
C=CCNC(=O)Nc1nc2cc(-c3cnccn3)cnc2s1 [Example 32, 1-prop-2-en-1-yl-3-(6-pyrazin-2-yl[1,3]thiazolo[5,4-b]pyridin-2-yl)urea]	> 32	> 32	32 (≈ 102 µM)	6.08
C=CCNC(=O)Nc1nc2cc(-c3cncc(C(=O)NCC)c3)cnc2s1 [Example 23, N-ethyl-5-{2-[(prop-2-en-1-ylcarbamoyl)amino][1,3]thiazolo[5,4-b]pyridin-6-yl}pyridine-3-carboxamide]	> 64	> 32	> 32	6.39
CCNC(=O)Nc1nc2cc(-c3cncnc3)c(OCC3CCCO3)nc2s1 (stereo not shown) [Example 51, 1-ethyl-3-[6-pyrimidin-5-yl-5-(tetrahydrofuran-2-ylmethoxy)[1,3]thiazolo[5,4-b]pyridin-2-yl]urea]	0.25 (≈ 0.624 µM)	0.125 (≈ 0.312 µM)	0.0625 (≈ 0.156 µM)	8.31
CCNC(=O)Nc1nc2cc(-c3cncc(C(=O)OCC)c3)c(OCC3CCOC3)nc2s1 (stereo not shown) [Example 53, ethyl 5-{2-[(ethylcarbamoyl)amino]-5-(tetrahydrofuran-3-ylmethoxy)[1,3]thiazolo[5,4-b]pyridin-6-yl}pyridine-3-carboxylate]	2.83 (≈ 6 µM)	0.5 (≈ 1.06 µM)	0.0625 (≈ 0.133 µM)	7.21
C=CCNC(=O)Nc1nc2cc(Cl)cnc2s1 [Example 1, 1-Allyl-3-(6-chloro-thiazolo [5,4-b]pyridin-2-yl)-urea]	16 (≈ 59.5 µM)	16 (≈ 59.5 µM)	8 (≈ 29.8 µM)	6.72
CCNC(=O)Nc1nc2cc(-c3c(C)noc3C)c(OCC3CCOCC3)nc2s1 [Example 62, 1-[6-(3,5-dimethylisoxazol-4-yl)-5-(tetrahydro-2H-pyran-4-ylmethoxy)[1,3]thiazolo[5,4-b]pyridin-2-yl]-3-ethylurea]	> 4	64 (≈ 148 µM)	8 (≈ 18.5 µM)	6.14
C=CCNC(=O)Nc1nc2cc(-c3cc[nH]n3)c(C)nc2s1 [Example 27, 1-[5-methyl-6-(1H-pyrazol-3-yl)[1,3]thiazolo[5,4-b]pyridin-2-yl]-3-prop-2-en-1-ylurea]	11.3 (≈ 36 µM)	> 22.6	2 (≈ 6.36 µM)	5.74
CCNC(=O)Nc1nc2cc(-c3ccc(C(F)(F)F)nc3)c(OCC3CCOC3)nc2s1 (stereo not shown) [Example 70, 1-ethyl-3-{5-(tetrahydrofuran-3-ylmethoxy)-6-[6-(trifluoromethyl)pyridin-3-yl][1,3]thiazolo[5,4-b]pyridin-2-yl}urea]	4.76 (≈ 10.2 µM)	0.25 (≈ 0.535 µM)	0.0625 (≈ 0.134 µM)	8.16

Reference: patent publication US20100137303A1, “NEW COMPOUND 255” (AstraZeneca AB, priority 2008, published 2010)
